Results taken from patent US10155021B2, “Antimicrobial 4-oxoquinolizines” (Emergent Product Development Gaithersburg Inc., priority 2011, dated 2018).
In brackets after ≈: the same amount, converted by molar mass. Like-named read-outs stand apart in the source and are kept apart here. Marks after values point to notes of the source that are not given here.

Tests used:
A. baumannii ATCC 19606 = experiment: MIC without and with sub-inhibitory polymyxin B (Example 4); assay type: cell-based, Acinetobacter baumannii; conditions: for MIC +0.06 μg/ml PB / MIC without PB/MIC + PB: A. baumannii ATCC 19606; for MIC +0.06 μg/ml PB: +0.06 μg/ml polymyxin B; for MIC without PB/MIC + PB: ratio, PB 0.06 μg/ml; for MIC: Acinetobacter baumannii, ATCC19606, A. baumannii ATCC 19606, without polymyxin B
A. baumannii A329 = experiment: Preliminary MBC without and with sub-inhibitory polymyxin B (Example 4); assay type: cell-based, Acinetobacter baumannii; conditions: for MBC: Acinetobacter baumannii, A329, A. baumannii A329, without polymyxin B, read-out: MBC without PB
A. baumannii A472 = experiment: MIC determination for Acinetobacter strains (Example 3); assay type: cell-based; conditions: LEV R, CIP R, MRP I, IMP I, AMK R, TET R
[1] = tested on: Acinetobacter sp. (H064200250); experiment: Preliminary MBC without and with sub-inhibitory polymyxin B (Example 4); assay type: cell-based; conditions: preliminary MBC; for MBC +[…] PB: +[…] polymyxin B; for MBC: Acinetobacter, without polymyxin B, read-out: MBC without PB
Method in brief: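 Read-out: the minimum concentration at which colonies were reduced by ca. 90% relative to positive control, usually seen as isolated colonies or a clear plate. Plates had been kept 18-20 hours at 37° C beforehand.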

[2] = tested on: Acinetobacter spp. H064200250; experiment: MIC determination for Acinetobacter strains (Example 3); assay type: cell-based, Acinetobacter sp.; conditions: LEV R, CIP R, MRP R, IMP I
A. baumannii A473 = experiment: Preliminary MBC without and with sub-inhibitory polymyxin B (Example 4); assay type: cell-based, Acinetobacter baumannii; conditions: for MBC: Acinetobacter baumannii, A473, A. baumannii A473, without polymyxin B, read-out: MBC without PB
A. baumannii A401 = experiment: as above; assay type: cell-based, Acinetobacter baumannii; conditions: preliminary MBC; for MBC +0.06 μg/ml PB: A baumannii A 401, +0.06 μg/ml polymyxin B; for MBC: Acinetobacter baumannii, A401, A baumannii A 401, without polymyxin B, read-out: MBC without PB
A. baumannii A390 = experiment: as above; assay type: cell-based, Acinetobacter baumannii; conditions: preliminary MBC; for MBC: Acinetobacter baumannii, A390, A. baumannii A390, without polymyxin B, read-out: MBC without PB
[3] = tested on: resistant strains of A. baumannii and one strain of Acinetobacter sp.; experiment: MIC without and with sub-inhibitory polymyxin B, whole panel / MIC ranges (Example 4; also strains not listed separately); assay type: cell-based; conditions: for MIC +0.06 μg/ml PB: +0.06 μg/ml polymyxin B; for MIC without PB/MIC + PB: ratio; for MIC +[…] PB: +[…] polymyxin B; for MIC: Acinetobacter baumannii
[4] = Acinetobacter spp. H064200250 (OXA51), 2nd experiment
[5] = Acinetobacter spp. H064200250, 1st experiment

C[C@@H](O)[C@H]1C(=O)N2C(C(=O)O)=C(SCCN=CN)C[C@H]12 [Imipenem, reference compound]
MIC +0.06 μg/ml PB (A. baumannii ATCC 19606; 1st experiment): 1 µg/mL | MIC +0.06 μg/ml PB (A. baumannii ATCC 19606; 2nd experiment, visual reading): 1 µg/mL | MIC without PB/MIC + PB (A. baumannii ATCC 19606; 1st experiment): 2 | MIC without PB/MIC + PB (A. baumannii ATCC 19606; 2nd experiment): 1 | MIC (A. baumannii ATCC 19606; 1st experiment, read-out: MIC without PB): 2 µg/mL (≈ 6.68 µM) | MIC (A. baumannii ATCC 19606; 2nd experiment, second reading marked *, mark not explained, read-out: MIC without PB, value in parentheses marked *): 4 µg/mL (≈ 13.4 µM) | MIC (A. baumannii ATCC 19606; 2nd experiment, visual reading, read-out: MIC without PB): 1 µg/mL (≈ 3.34 µM) | MBC +0.06 μg/ml PB (A. baumannii A329; A. baumannii A329, +0.06 μg/ml polymyxin B, 2nd experiment): 128 µg/mL | MBC (A. baumannii A329; 1st experiment): 128 µg/mL (≈ 428 µM) | MBC (A. baumannii A329; 2nd experiment): > 128 µg/mL | MIC (A. baumannii A472): 16 µg/mL (≈ 53.4 µM) | MBC +[…] PB [1, 4]: 0.5 µg/mL (≈ 1.67 µM) | MBC +[…] PB [1, 5]: 2 (0.5)* μg/ml | MBC [1, 4]: 8 µg/mL (≈ 26.7 µM) | MBC [1, 5]: 16 µg/mL (≈ 53.4 µM) | MIC [2]: 16 µg/mL (≈ 53.4 µM) | MBC +0.06 μg/ml PB (A. baumannii A473; A. baumannii A473, +0.06 μg/ml polymyxin B, 2nd experiment): 4 µg/mL | MBC (A. baumannii A473; 1st experiment): 32 µg/mL (≈ 107 µM) | MBC (A. baumannii A473; 2nd experiment): 32 µg/mL (≈ 107 µM) | MBC +0.06 μg/ml PB (A. baumannii A401; 2nd experiment): 4 µg/mL | MBC +0.06 μg/ml PB (A. baumannii A401; 1st experiment): 8 µg/mL | MBC (A. baumannii A401; 2nd experiment): 32 µg/mL (≈ 107 µM) | MBC (A. baumannii A401; 1st experiment): 32 µg/mL (≈ 107 µM) | MBC +0.06 μg/ml PB (A. baumannii A390; A. baumannii A390, +0.06 μg/ml polymyxin B, 2nd experiment): 4 µg/mL | MBC (A. baumannii A390; 2nd experiment): 16 µg/mL (≈ 53.4 µM) | MBC (A. baumannii A390; 1st experiment): 16 µg/mL (≈ 53.4 µM) | Range ratios MIC without PB/MIC with PB 01-10-2008 n = 8 ([3]; 1st experiment, 8 strains): 1-64 | Range ratios MIC without PB/MIC with PB 14-10-2008 n = 11 ([3]; 2nd experiment, 11 strains): 1-256 | MIC +0.06 μg/ml PB ([3]; A. baumannii A14, 1st experiment): 1 µg/mL | MIC +0.06 μg/ml PB ([3]; A. baumannii A14, 2nd experiment, visual reading): 1 µg/mL | MIC without PB/MIC + PB ([3]; A. baumannii A14, PB 0.06 μg/ml, 1st experiment): 1 | MIC without PB/MIC + PB ([3]; A. baumannii A14, PB 0.06 μg/ml, 2nd experiment): 1 | MIC +[…] PB ([3]; A. baumannii NCTC 13301, 1st experiment): 16 µg/mL (≈ 53.4 µM) | MIC +[…] PB ([3]; A. baumannii NCTC 13301, 2nd experiment, visual reading): 1 µg/mL (≈ 3.34 µM) | MIC without PB/MIC + PB ([3]; A. baumannii NCTC 13301, PB […], 1st experiment): 8 | MIC without PB/MIC + PB ([3]; A. baumannii NCTC 13301, PB […], 2nd experiment): 128 | MIC ([3]; A. baumannii A14, without polymyxin B, 1st experiment, read-out: MIC without PB): 1 µg/mL (≈ 3.34 µM) | MIC ([3]; A. baumannii A14, without polymyxin B, 2nd experiment, visual reading, read-out: MIC without PB): 1 µg/mL (≈ 3.34 µM) | MIC ([3]; NCTC13301, A. baumannii NCTC 13301, without polymyxin B, 1st experiment, read-out: MIC without PB): 128 µg/mL (≈ 428 µM) | MIC ([3]; NCTC13301, A. baumannii NCTC 13301, without polymyxin B, 2nd experiment, visual reading, read-out: MIC without PB): 128 µg/mL (≈ 428 µM) | MIC ([3]; read-out: MIC range without PB 01-10-2008 n = 8, without polymyxin B, 1st experiment, 8 strains): 1 to 128 µg/mL (≈ 3.34 to 428 µM) | MIC range with PB ([…] MIC) 01-10-2008 n = 8 ([3]; with polymyxin B […] MIC, 1st experiment, 8 strains): <0.125-16 μg/ml
